Results reported in article PMC4481167, “The primary pathway for lactate oxidation in Desulfovibrio vulgaris” (Frontiers in Microbiology, 2015).

Molecular target: T1, PFOR (DVU3025, por) (Nitratidesulfovibrio vulgaris, UniProt Q726T1)
T1 construct: native, untagged; in-gel activity band from crude extract identified by LC-MS/MS; homo-octamer (cited)
Assay: in-gel activity stain (methyl viologen), band identified by LC-MS/MS
Type: biochemical
Details: 20 mM pyruvate, 0.1 mM CoA, 2 mM methyl viologen, 16 mM dithioerythritol, 50 mM Tris-HCl pH 8.5, anaerobic

T1 sequence (Q726T1 1-1215): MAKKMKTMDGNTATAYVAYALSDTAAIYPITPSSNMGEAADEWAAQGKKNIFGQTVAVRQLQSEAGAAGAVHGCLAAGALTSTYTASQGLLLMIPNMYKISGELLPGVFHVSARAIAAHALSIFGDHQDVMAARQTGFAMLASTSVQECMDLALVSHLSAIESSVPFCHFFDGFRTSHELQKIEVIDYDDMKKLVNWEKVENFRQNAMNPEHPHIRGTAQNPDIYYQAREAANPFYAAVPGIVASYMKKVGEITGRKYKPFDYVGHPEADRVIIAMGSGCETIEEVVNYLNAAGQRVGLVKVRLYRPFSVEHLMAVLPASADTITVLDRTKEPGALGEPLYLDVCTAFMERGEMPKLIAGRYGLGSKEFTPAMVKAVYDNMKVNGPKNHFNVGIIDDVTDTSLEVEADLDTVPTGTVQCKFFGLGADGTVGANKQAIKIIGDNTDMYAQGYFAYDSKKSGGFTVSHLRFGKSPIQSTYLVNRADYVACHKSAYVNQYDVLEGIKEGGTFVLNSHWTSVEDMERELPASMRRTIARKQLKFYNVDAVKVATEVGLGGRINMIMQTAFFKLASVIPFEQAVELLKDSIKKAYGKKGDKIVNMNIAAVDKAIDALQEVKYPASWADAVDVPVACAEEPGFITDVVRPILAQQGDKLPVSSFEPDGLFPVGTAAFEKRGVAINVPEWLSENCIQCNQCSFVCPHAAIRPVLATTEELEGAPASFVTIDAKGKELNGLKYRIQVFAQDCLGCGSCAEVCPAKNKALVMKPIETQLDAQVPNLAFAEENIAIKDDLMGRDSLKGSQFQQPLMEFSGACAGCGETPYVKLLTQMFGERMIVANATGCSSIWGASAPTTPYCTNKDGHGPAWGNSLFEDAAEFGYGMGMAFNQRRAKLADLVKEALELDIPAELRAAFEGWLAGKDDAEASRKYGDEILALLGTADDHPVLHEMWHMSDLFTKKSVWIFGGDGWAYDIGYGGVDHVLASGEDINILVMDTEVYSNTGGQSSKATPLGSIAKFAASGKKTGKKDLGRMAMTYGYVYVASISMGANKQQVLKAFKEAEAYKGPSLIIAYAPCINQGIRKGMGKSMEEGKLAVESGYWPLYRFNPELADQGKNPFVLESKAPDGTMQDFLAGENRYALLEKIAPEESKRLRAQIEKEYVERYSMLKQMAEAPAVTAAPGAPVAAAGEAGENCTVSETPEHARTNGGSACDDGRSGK

| SMILES | in-gel activity stain (methyl viologen), band identified by LC-MS/MS |
| --- | --- |
| CC(C)(COP(=O)(O)OP(=O)(O)OC[C@H]1O[C@@H](n2cnc3c(N)ncnc32)[C@H](O)[C@@H]1OP(=O)(O)O)[C@@H](O)C(=O)NCCC(=O)NCCS [CoA] | Two bands were stained with methyl viologen in the presence of pyruvate and CoA |
| CC(=O)C(=O)O [pyruvate] | Two bands were stained with methyl viologen in the presence of pyruvate and CoA |
